# Measured values taken from patent publication US20230105108A1, “COMPOUNDS FOR THE TREATMENT OF BACTERIAL INFECTIONS AND POTENTIATION OF ANTIBIOTICS” (GEORGIA STATE UNIVERSITY RESEARCH FOUNDATION, INC., priority 2019, published 2023).
# Entries after “also recorded” stand apart in the source; their conditions may differ. Counter-ions that a name gives are not always drawn. Like-named read-outs stand apart in the source and are kept apart here. Marks after values point to notes of the source that are not given here.
# Key:
# [1] = Cytotoxicity in H9c2 cells (CCK-8); type: cell-based; conditions: rat, H9c2 cells; H9c2 cell line
# How it was run: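 H9c2 cells were grown in DMEM with 10% FBS, seeded the day before, and exposed to a range of di-amidine concentrations for 24 h at 37 °C, 5% CO2. Viability was read by CCK-8 after 3 h at 37 °C as absorbance at 450 nm.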
# E. coli (ATCC 25922) [2] = experiment: MIC determination, sensitization fold and FIC index on E. coli; type: cell-based; conditions: for MIC: Escherichia coli
# How it was run: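 MICs read by OD600 as >90% growth inhibition after two-fold rifampicin dilutions, 5×10^5 CFU/ml E. coli, 24 h, 37 °C, shaken, cation-adjusted Mueller Hinton II broth.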
# B. subtilis = experiment: MIC determination and sensitization fold on B. subtilis; type: cell-based; conditions: for Sensitization fold: erythromycin; for MIC: Bacillus subtilis
# MRSA (ATCC 33592) = experiment: MIC determination and sensitization fold on MRSA; type: cell-based, methicillin-resistant Staphylococcus aureus; conditions: MRSA; for Sensitization fold: rifampicin
# E. coli (ATCC 25922) [3] = experiment: Antibiotic uptake in the presence and absence of MD-100 (HPLC); type: cell-based; conditions: E. coli lysate, presence vs absence of 25 μg/ml MD-100
# Protocol: Direct comparison of the antibiotic uptake in the presence and absence of MD-100 through HPLC study. E. coli (ATCC 25922) was cultured in Mueller Hinton II cation-adjusted broth for overnight at 37° C. to reach a density of OD600 of 0.8 to 1.0. To 20 ml fresh Mueller Hinton II cation-adjusted broth was added 50 μl E. coli stock, 200 μl 5 mg/ml O—CH3 novobiocin and 100 μl 10 mM MD-100. In the other group, the same amount of E. coli stock, O—CH3 novobiocin was used in the absence of MD-100. Then E. coli was incubated for 20 h at 37° C. with continuous shaking of 200 rpm. After, the E. coli suspension was centrifuged at 3000 g for 10 min and the culture media was removed to obtain bacteria pallet. The pallets from the two groups was re-suspended in PBS to reach the same OD600 of 2.0. To this E. coli suspension was spiked with 10 μM internal standard. 1 ml E. coli from each group in PBS was lysed by sonication on ice for 15 min, followed by adding 2 ml MeOH, the mixture was then centrifuged at 3000 g for 5 min and the supernatant was analyzed by HPLC. 20 μl of each sample was injected into Shimadzu Prominence UFLC (column: Waters C18, […], 4.6×100 mm, injection loop volume: 20 μl). The mobile phase was acetonitrile (ACN)/H2O (with 0.05% trifluoroacetic acid in the aqueous) with ratios defined as: 20%˜55% ACN, 0˜10 min; 55%˜65% ACN, 10˜20 min; 65%˜20% ACN, 20˜25 min. […]
# [4] = system: A. baumannii (ATCC 17978); experiment: MIC, sensitization fold and FIC index on A. baumannii; type: cell-based; conditions: Acinetobacter baumannii, ATCC17978; A. baumannii; read-out: MIC of MD-124
# [5] = system: mcr-1 over-expressing E. coli strains; experiment: microbe, parasite or virus in culture; type: cell-based
# E. coli = experiment: Ex vivo skin burn infection model, wild-type E. coli; conditions: human skin burn, hypromellose gel, 24 hours; 4‰ (w/w) novobiocin, 1.5‰ MD-124
# Protocol: To achieve topical application, compounds were formulated as hypromellose gel. […] After that, skin was loaded with hypromellose gel with different antibiotics and cultured at 37° C. for 24 hours. After 24 hours incubation, the skin sample was homogenized and the supernatants were serially diluted and plated on agar plates, from which bacterial counts on the skin was calculated. […] 1‰ polymyxin B hypromellose gel was used as positive control.
# [6] = 10 μM compound, rifampicin as the antibiotic (Table 6)
# [7] = E. coli, rifampicin, compound at 10 μM
smiles,measurement,setting,value
"Cc1cc(COc2ccc(C(=N)N)cc2)cc(COc2ccc(C(=N)N)cc2)c1 [MD-100, 4,4′-(((5-methyl-1,3-phenylene)bis(methylene))bis(oxy))dibenzimidamide dihydrochloride]",CC50 at 24 h,[1],50 µM
same,Sensitization fold,E. coli (ATCC 25922) [2]; [6],8 fold
same,Sensitization fold,"E. coli (ATCC 25922) [2]; E. coli, rifampicin, 10 μg/ml bacterial sensitizer",32^a fold
same,Sensitization fold,E. coli (ATCC 25922) [2]; [7],8-fold at 10 μM
same,Sensitization fold,"E. coli (ATCC 25922) [2]; E. coli, rifampicin, compound at 25 μM",32-fold at 25 μM
same,MIC,"E. coli (ATCC 25922) [2]; ATCC25922, 24 h",100 µM
same,Sensitization fold,"E. coli (ATCC 25922) [2]; wild-type E. coli towards erythromycin, 10 μg/ml MD-100",32 fold
same,growth density compared with the control (no treatment) group,"B. subtilis; B. subtilis, 5.5 μg/ml alone, no antibiotic",80%
same,Sensitization fold,"B. subtilis; B. subtilis, compound at 6 μM",8 fold at 6 μM.
same,Sensitization fold,"B. subtilis; B. subtilis, compound at 12 μM",32-fold at 12 μM;
same,MIC,"B. subtilis; 24 h, B. subtilis, compound alone, read-out: MIC",50 µM
same,MIC,"B. subtilis; wild type B. subtilis, read-out: MIC of DB2560",50 µg/mL
same,Sensitization fold,MRSA (ATCC 33592); compound at 6 μM,32-fold at 6 μM
same,relative intracellular concentration of O-methyl novobiocin,E. coli (ATCC 25922) [3],greatly increased
"N=C(N)c1ccc(COc2cc(OCc3ccc(C(=N)N)cc3)cc(C(F)(F)F)c2)cc1 [MD-124, 4,4′-(((5-(trifluoromethyl)-1,3-phenylene)bis(oxy))bis(methylene)) dibenzimidamide dihydrochloride]",CC50 at 24 h,[1],50 µM
same,Sensitization fold,E. coli (ATCC 25922) [2]; [6],512 fold
same,Sensitization fold (checkerboard assay),"E. coli (ATCC 25922) [2]; E. coli toward rifampicin, ~10 μg/ml MD-124","over 16,000 fold"
same,effect on bacterial growth (OD600 at different time points),"E. coli (ATCC 25922) [2]; E. coli, 5 μg/ml compound alone, no antibiotic, dihydrochloride",no bacterial the growth inhibition effect; also recorded: no effect on bacterial growth
same,Sensitization fold,"E. coli (ATCC 25922) [2]; E. coli, rifampicin, 5 μg/ml bacterial sensitizer",512 fold
same,Sensitization fold,E. coli (ATCC 25922) [2]; [7],512-fold at 10 μM
same,MIC,"E. coli (ATCC 25922) [2]; ATCC25922, 24 h, E. coli, compound alone, read-out: MIC",100 µM
same,MIC,"E. coli (ATCC 25922) [2]; ATCC25922, E. coli, read-out: MIC of MD-124 itself",50 µg/mL
same,Sensitization fold,"E. coli (ATCC 25922) [2]; wild type E. coli towards rifampin, 3 μg/ml MD-124",16 fold
same,Sensitization fold,"E. coli (ATCC 25922) [2]; wild-type E. coli towards clarithromycin, 5 μg/ml sensitizer",256 fold
same,Sensitization fold,MRSA (ATCC 33592); compound at 5 μM,32-fold at 5 μM
same,MIC,"MRSA (ATCC 33592); Staphylococcus aureus, 24 h, compound alone, read-out: MIC",10 µM
same,MIC,[4],25 µg/mL
same,MIC,"[5]; Escherichia coli, mcr-1 over-expression E. coli, read-out: MIC of MD-124",12.5 µg/mL
same,MIC of Rif with 3 μg/ml MD-124,[5]; strain mcr-1 A,0.32
same,Sensitization fold with 3 μg/ml MD-124,"[5]; strain mcr-1 A, rifampicin, dihydrochloride",16 fold
same,MIC of Rif with 3 μg/ml MD-124,[5]; strain mcr-1 B,1.25
same,MIC of Rif with 5 μg/ml MD-124,[5]; strain mcr-1 B,0.16
same,Sensitization fold with 3 μg/ml MD-124,"[5]; strain mcr-1 B, rifampicin",4 fold
same,Sensitization fold with 5 μg/ml MD-124,"[5]; strain mcr-1 B, rifampicin",32 fold
same,E. coli growth inhibition / bacterial load vs vehicle group,E. coli,neither 4‰ (w/w) novobiocin nor 1.5‰ MD-124 themselves achieved significant E. coli growth inhibition
